Laboratory results as given in patent publication US9745291B2, “PRMT5 inhibitors containing a dihydro- or tetrahydroisoquinoline and uses thereof” (Epizyme, Inc., priority 2012, dated 2017).

How the values were obtained:
PRMT5/MEP50 = PRMT5/MEP50 (Homo sapiens (Human), UniProt O14744); assay: PRMT5 Biochemical Assay (PRMT5/MEP50 enzyme assay on peptide substrate, 3H-SAM Flashplate); conditions: PRMT5 biochemical assay; read-out: Biochemical IC50
Text: S-adenosylmethionine (SAM), S-adenosylhomocysteine (SAH), bicine, KCl, Tween20, dimethylsulfoxide (DMSO), bovine skin gelatin (BSG), and Tris(2-carboxyethyl)phosphine hydrochloride solution (TCEP) were purchased from Sigma-Aldrich at the highest level of purity possible. ^3H-SAM was purchase from American Radiolabeled Chemicals with a specific activity of 80 Ci/mmol. 384-well streptavidin Flashplates were purchased from PerkinElmer.
Peptide representative of human histone H4 residues 1-15 was synthesized with a C-terminal linker-affinity tag motif and a C-terminal amide cap by 21st Century Biochemicals. […] The sequence was Ac-[…][K-Biot]-amide (SEQ ID NO.:3).
Full-length human MEP50 (NM_024102) clone was amplified from a human testis cDNA library incorporating a 5′ sequence encoding a 6-histidine tag (MHHHHHH)(SEQ ID NO.:5) fused directly to Arg 2 of MEP50. The amplified genes were sublconed into pENTR/D/TEV (Life Technologies) and subsequently transferred by Gateway™ attL×attR recombination to pDEST8 baculvirus expression vector (Life Technologies).
Recombinant baculovirus and Baculovirus-Infected Insect Cells (BIIC) were generated according to Bac-to-Bac kit instructions (Life Technologies) and Wasilko, 2006, respectively. Protein over-expression was accomplished by infecting exponentially growing Spodoptera frugiperda (SF9) cell culture at 1.2×10^6 cell/ml with a 5000 fold dilution of BIIC stock. Infections were carried out at 27° C. for 72 hours, harvested by centrifugation, and stored at −80° C. for purification.
Flag-PRMT5/6His-MeP50 was eluted with 300 mM Imidazole in the same buffer. […] Reference: Wasilko, D. J. and S. E. Lee: “TIPS: titerless infected-cells preservation and scale-up” Bioprocess J., 5 (2006), pp. 29-32.
General Procedure for PRMT5/MEP50 Enzyme Assays on Peptide Substrates.
The assays were all performed in a buffer consisting of 20 mM Bicine (pH=7.6), 1 mM TCEP, 0.005% BSG, and 0.002% Tween20, prepared on the day of use. Compounds in 100% DMSO (1 ul) were spotted into a polypropylene 384-well V-bottom plates (Greiner) using a Platemate Plus outfitted with a 384-channel head (Thermo Scientific). DMSO (1 ul) was added to Columns 11, 12, 23, 24, rows A-H for the maximum signal control and 1 ul of SAH, a known product and inhibitor of PRMT5/MEP50, was added to columns 11, 12, 23, 24, rows I-P for the minimum signal control. A cocktail (40 ul) containing the PRMT5/MEP50 enzyme and the peptide was added by Multidrop Combi (Thermo-Fisher). The compounds were allowed to incubate with PRMT5/MEP50 for 30 min at 25 degrees Celsius, then a cocktail (10 ul) containing ^3H-SAM was added to initiate the reaction (final volume=51 ul).

Z-138 cell line = assay: Z-138 Proliferation Assay (Cell Titer Glo, 5 days); format: cell-based; conditions: Homo sapiens, Z-138, 120 h, Z-138 cells
Text: [formula] Z-138 Proliferation Assay
Z-138 suspension cells were purchased from ATCC (American Type Culture Collection, Manassas, Va.). RPMI/Glutamax medium, penicillin-streptomycin, heat inactivated fetal bovine serum were purchased from Life Technologies, Grand Island, N.Y., USA. V-bottom polypropylene 384-well plates were purchased from Greiner Bio-One, Monroe, N.C., USA. Cell culture 384-well white opaque plates were purchased from Perkin Elmer, Waltham, Mass., USA. Cell-Titer Glo® was purchased from Promega Corporation, Madison, Wis., USA. SpectraMax M5 plate reader was purchased from Molecular Devices LLC, Sunnyvale, Calif., USA.
Z-138 suspension cells were maintained in growth medium (RPMI 1640 supplemented with 10% v/v heat inactivated fetal bovine serum and cultured at 37° C. under 5% CO2 Under assay conditions, cells were incubated in assay medium (RPMI 1640 supplemented with 10% v/v heat inactivated fetal bovine serum and 100 units/mL penicillin-streptomycin) at 37° C. under 5% CO2.
For the assessment of the effect of compounds on the proliferation of the Z-138 cell line, exponentially growing cells were plated in 384-well white opaque plates at a density of 10,000 cells/ml in a final volume of 50 μl of assay medium. A compound source plate was prepared by performing triplicate nine-point 3-fold serial dilutions in DMSO, beginning at 10 mM (final top concentration of compound in the assay was 20 μM and the DMSO was 0.2%). A 100 nL aliquot from the compound stock plate was added to its respective well in the cell plate. […] After addition of compounds, assay plates were incubated for 5 days at 37° C., 5% CO2, relative humidity >90%.
Cell viability was measured by quantitation of ATP present in the cell cultures, adding 35 μl of Cell Titer Glo® reagent to the cell plates. Luminescence was read in the SpectraMax M5 microplate reader. The concentration of compound inhibiting cell viability by 50% was determined using a 4-parametric fit of the normalized dose response curves.

PRMT5/MEP50, sequence (O14744 other isoform, or with tags, fused parts or gaps): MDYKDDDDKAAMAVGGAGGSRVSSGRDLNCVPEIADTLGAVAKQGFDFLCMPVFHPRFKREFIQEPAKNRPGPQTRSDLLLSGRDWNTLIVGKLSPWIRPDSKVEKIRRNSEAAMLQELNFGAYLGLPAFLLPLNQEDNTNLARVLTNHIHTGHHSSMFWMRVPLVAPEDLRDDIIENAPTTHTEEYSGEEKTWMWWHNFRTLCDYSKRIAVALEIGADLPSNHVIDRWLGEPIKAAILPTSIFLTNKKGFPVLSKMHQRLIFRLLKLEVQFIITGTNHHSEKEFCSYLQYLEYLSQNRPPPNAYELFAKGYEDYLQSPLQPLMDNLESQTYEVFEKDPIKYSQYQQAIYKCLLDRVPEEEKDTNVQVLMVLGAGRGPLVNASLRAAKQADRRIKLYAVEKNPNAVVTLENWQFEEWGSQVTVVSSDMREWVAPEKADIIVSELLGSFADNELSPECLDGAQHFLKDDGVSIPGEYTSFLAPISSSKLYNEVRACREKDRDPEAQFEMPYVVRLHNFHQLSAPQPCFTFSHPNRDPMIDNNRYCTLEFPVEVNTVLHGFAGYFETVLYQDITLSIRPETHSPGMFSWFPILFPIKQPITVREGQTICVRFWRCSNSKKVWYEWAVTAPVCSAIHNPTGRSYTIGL
PRMT5/MEP50, sequence (Q9BQA1 other isoform, or with tags, fused parts or gaps partner): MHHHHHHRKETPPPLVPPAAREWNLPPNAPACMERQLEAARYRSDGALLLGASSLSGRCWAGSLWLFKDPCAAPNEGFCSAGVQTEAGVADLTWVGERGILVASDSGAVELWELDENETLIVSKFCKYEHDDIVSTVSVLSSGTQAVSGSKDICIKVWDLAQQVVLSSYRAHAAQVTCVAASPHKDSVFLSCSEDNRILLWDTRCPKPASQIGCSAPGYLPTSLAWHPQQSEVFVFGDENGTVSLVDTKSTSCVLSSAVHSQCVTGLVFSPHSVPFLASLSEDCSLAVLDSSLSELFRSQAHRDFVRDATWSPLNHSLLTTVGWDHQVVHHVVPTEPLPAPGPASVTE

Molecule: O=C(COc1cccc2cccnc12)NCC(O)CN1CCc2ccccc2C1 (stereo not drawn) [Compound 6, N-(3-(3,4-dihydroisoquinolin-2(1H)-yl)-2-hydroxypropyl)-2-(quinolin-8-yloxy)acetamide]
- IC50 (PRMT5/MEP50): < 100 nM
- EC50 (Z-138 cell line): 101 to 1000 nM

Molecule: O=C(COc1cccc2cccnc12)NC[C@@H](O)CN1CCc2ccccc2C1 [Compound 45, (R)—N-(3-(3,4-dihydroisoquinolin-2(1H)-yl)-2-hydroxypropyl)-2-(quinolin-8-yloxy)acetamide]
- IC50 (PRMT5/MEP50): < 100 nM
- EC50 (Z-138 cell line): 101 to 1000 nM

Molecule: O=C(COc1ccccc1N1CCNCC1)NCC(O)CN1CCc2ccccc2C1 (stereo not drawn) [Compound 79]
- IC50 (PRMT5/MEP50): < 100 nM
- EC50 (Z-138 cell line): 1000 to 10000 nM

Molecule: O=C(NCC(O)CN1CCc2ccccc2C1)C(O)c1ccccc1 (stereo not drawn) [Compound 165]
- IC50 (PRMT5/MEP50): 101 to 1000 nM

Molecule: O=C(COC1CCCOC1)NCC(O)CN1CCc2ccccc2C1 (stereo not drawn) [Compound 166]
- IC50 (PRMT5/MEP50): 1000 to 10000 nM

Molecule: O=C(COCCN1CCOCC1)NCC(O)CN1CCc2ccccc2C1 (stereo not drawn) [Compound 167]
- IC50 (PRMT5/MEP50): 1000 to 10000 nM

Molecule: Nc1ncnc2c(OCC(=O)NCC(O)CN3CCc4ccccc4C3)cccc12 (stereo not drawn) [Compound 168]
- IC50 (PRMT5/MEP50): < 100 nM

Molecule: CN(C)c1cccc(OCC(=O)NCC(O)CN2CCc3ccccc3C2)c1S(N)(=O)=O (stereo not drawn) [Compound 169]
- IC50 (PRMT5/MEP50): < 100 nM

Molecule: CC(NC(=O)COc1ccccc1S(N)(=O)=O)C(O)CN1CCc2ccccc2C1 (stereo not drawn) [Compound 170]
- IC50 (PRMT5/MEP50): < 100 nM

Molecule: O=C(COC1CCOC1)NCC(O)CN1CCc2ccccc2C1 (stereo not drawn) [Compound 171]
- IC50 (PRMT5/MEP50): 1000 to 10000 nM

Molecule: O=C(COc1cncc(CN2CCOCC2)c1)NCC(O)CN1CCc2ccccc2C1 (stereo not drawn) [Compound 172]
- IC50 (PRMT5/MEP50): 101 to 1000 nM

Molecule: CC(O)(C(=O)NCC(O)CN1CCc2ccccc2C1)c1ccccc1 (stereo not drawn) [Compound 173]
- IC50 (PRMT5/MEP50): 1000 to 10000 nM

Molecule: O=C(Cc1ccc2c(c1)OCO2)NC[C@H](O)CN1CCc2ccccc2C1 [Compound 174]
- IC50 (PRMT5/MEP50): 101 to 1000 nM

Molecule: O=C(CCc1nc2ccccc2[nH]1)NC[C@H](O)CN1CCc2ccccc2C1 [Compound 175, (S)-3-(1H-benzo[d]imidazol-2-yl)-N-(3-(3,4-dihydroisoquinolin-2(1H)-yl)-2-hydroxypropyl)propanamide]
- IC50 (PRMT5/MEP50): < 100 nM

Molecule: CN1CCN(CCOCC(=O)NCC(O)CN2CCc3ccccc3C2)CC1 (stereo not drawn) [Compound 176]
- IC50 (PRMT5/MEP50): 1000 to 10000 nM

Molecule: O=C(NC[C@H](O)CN1CCc2ccccc2C1)C1CNc2ccccc21 (stereo partly drawn) [Compound 177]
- IC50 (PRMT5/MEP50): 101 to 1000 nM

Molecule: O=C(CC1CCc2ccccc21)NC[C@H](O)CN1CCc2ccccc2C1 (stereo partly drawn) [Compound 178]
- IC50 (PRMT5/MEP50): 101 to 1000 nM

Molecule: O=C(CC1Cc2ccccc2C1)NC[C@H](O)CN1CCc2ccccc2C1 [Compound 179]
- IC50 (PRMT5/MEP50): 101 to 1000 nM

Molecule: O=C(NC[C@H](O)CN1CCc2ccccc2C1)C1CCCc2ccccc21 (stereo partly drawn) [Compound 180]
- IC50 (PRMT5/MEP50): 1000 to 10000 nM

Molecule: O=C(COc1cccc2cncnc12)NCC(O)CN1CCc2ccccc2C1 (stereo not drawn) [Compound 181]
- IC50 (PRMT5/MEP50): < 100 nM

Molecule: O=C(Cc1c[nH]c2ccccc12)NC[C@H](O)CN1CCc2ccccc2C1 [Compound 182]
- IC50 (PRMT5/MEP50): 101 to 1000 nM

Molecule: O=C(NC[C@H](O)CN1CCc2ccccc2C1)C1COc2ccccc2O1 (stereo partly drawn) [Compound 183]
- IC50 (PRMT5/MEP50): 101 to 1000 nM

Molecule: O=C(NC[C@H](O)CN1CCc2ccccc2C1)[C@@H]1C[C@@H]2CCCC[C@@H]2N1 [Compound 184]
- IC50 (PRMT5/MEP50): 1000 to 10000 nM

Molecule: O=C(NC[C@H](O)CN1CCc2ccccc2C1)[C@H]1Cc2ccccc2CN1 [Compound 185]
- IC50 (PRMT5/MEP50): 101 to 1000 nM

Molecule: O=C(COc1cccc(-c2ncc[nH]2)c1)NC[C@@H](O)CN1CCc2ccccc2C1 [Compound 186]
- IC50 (PRMT5/MEP50): 1000 to 10000 nM

Molecule: Cn1ccnc1-c1cccc(OCC(=O)NC[C@@H](O)CN2CCc3ccccc3C2)c1 [Compound 187]
- IC50 (PRMT5/MEP50): 1000 to 10000 nM

Molecule: O=C(COc1cccc(C(=O)NCCN2CCOCC2)c1)NC[C@@H](O)CN1CCc2ccccc2C1 [Compound 188]
- IC50 (PRMT5/MEP50): 1000 to 10000 nM

Molecule: O=C(COc1cccc(C(=O)NCCc2c[nH]cn2)c1)NC[C@@H](O)CN1CCc2ccccc2C1 [Compound 189]
- IC50 (PRMT5/MEP50): 101 to 1000 nM

Molecule: CN1CCN(c2cccc(OCC(=O)NC[C@@H](O)CN3CCc4ccccc4C3)c2)CC1 [Compound 190]
- IC50 (PRMT5/MEP50): < 100 nM

Molecule: CN(C)CCN(C)S(=O)(=O)c1ccccc1OCC(=O)NC[C@@H](O)CN1CCc2ccccc2C1 [Compound 191]
- IC50 (PRMT5/MEP50): < 100 nM

Molecule: O=C(CCc1nc2ccccc2[nH]1)NC[C@@H](O)CN1CCc2ccccc2C1 [Compound 192, (R)-3-(1H-benzo[d]imidazol-2-yl)-N-(3-(3,4-dihydroisoquinolin-2(1H)-yl)-2-hydroxypropyl)propanamide]
- IC50 (PRMT5/MEP50): 101 to 1000 nM

Molecule: O=C(CCc1nc2ccccc2s1)NC[C@@H](O)CN1CCc2ccccc2C1 [Compound 193]
- IC50 (PRMT5/MEP50): 1000 to 10000 nM

Molecule: O=C(COc1nc2ccccc2[nH]1)NC[C@@H](O)CN1CCc2ccccc2C1 [Compound 212]
- IC50 (PRMT5/MEP50): 1000 to 10000 nM

Molecule: O=C(COc1cccc(C(=O)NCCn2ccnc2)c1)NC[C@@H](O)CN1CCc2ccccc2C1 [Compound 230]
- IC50 (PRMT5/MEP50): 1000 to 10000 nM

Molecule: CN1CCN(S(=O)(=O)c2ccccc2OCC(=O)NC[C@@H](O)CN2CCc3ccccc3C2)CC1CO (stereo partly drawn) [Compound 233]
- IC50 (PRMT5/MEP50): 1000 to 10000 nM

Molecule: O=C(COc1ccccc1[C@H]1CCCCN1)NC[C@@H](O)CN1CCc2ccccc2C1 [Compound 235]
- IC50 (PRMT5/MEP50): 1000 to 10000 nM

Molecule: O=C(CCn1cnc2ccccc21)NC[C@H](O)CN1CCc2ccccc2C1 [Compound 248]
- IC50 (PRMT5/MEP50): 1000 to 10000 nM

Molecule: [2H]C1([2H])Cc2ccccc2C([2H])([2H])N1C[C@@H](O)CNC(=O)CCc1nc2ccccc2[nH]1 [Compound 251]
- IC50 (PRMT5/MEP50): 101 to 1000 nM

Molecule: Cn1c(CCC(=O)NC[C@@H](O)CN2CCc3ccccc3C2)nc2ccccc21 [Compound 268]
- IC50 (PRMT5/MEP50): 1000 to 10000 nM

Molecule: O=C(COc1ccccc1N1CCNCC1)NC[C@@H](O)CN1CCc2ccccc2C1 [Compound 270]
- IC50 (PRMT5/MEP50): 1000 to 10000 nM

Molecule: CN1CC[C@@H](CN(C)S(=O)(=O)c2ccccc2OCC(=O)NC[C@@H](O)CN2CCc3ccccc3C2)C1 [Compound 272]
- IC50 (PRMT5/MEP50): < 100 nM

Molecule: N-(3-(3,4-dihydroisoquinolin-2(1H)-yl)-2-hydroxypropyl)-2-((5,6,7,8-tetrahydronaphthalen-1-yl)oxy)acetamide [Compound 62]
- IC50 (PRMT5/MEP50): 1000 to 10000 nM
